Test results reported in ChEMBL document CHEMBL1201862, “PubChem BioAssay data set” (2004).
Blank lines part the entries; values can stand above or below the compound they belong to. The source made the active and inactive calls.

Columns and labels:
Cytochrome P450 2C19 = Cytochrome P450 2C19 (Homo sapiens, UniProt P33261); assay: Cytochrome panel assay with activity outcomes. Panel member name: p450-cyp2c19 Compounds with AC50 equal or less than 10 uM are considered active; type: functional; conditions: read-out: AC50
Cytochrome P450 2C9 = Cytochrome P450 2C9 (Homo sapiens, UniProt P11712)
Cytochrome P450 2D6 = Cytochrome P450 2D6 (Homo sapiens, UniProt P10635);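 note: CYP2D6 member of a cytochrome P450 panel assay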
Cytochrome P450 1A2 = target: T1, Cytochrome P450 1A2 (Homo sapiens, UniProt P05177);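 note: PubChem cytochrome P450 panel assay, CYP1A2 panel member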
T1 sequence (P05177 whole entry): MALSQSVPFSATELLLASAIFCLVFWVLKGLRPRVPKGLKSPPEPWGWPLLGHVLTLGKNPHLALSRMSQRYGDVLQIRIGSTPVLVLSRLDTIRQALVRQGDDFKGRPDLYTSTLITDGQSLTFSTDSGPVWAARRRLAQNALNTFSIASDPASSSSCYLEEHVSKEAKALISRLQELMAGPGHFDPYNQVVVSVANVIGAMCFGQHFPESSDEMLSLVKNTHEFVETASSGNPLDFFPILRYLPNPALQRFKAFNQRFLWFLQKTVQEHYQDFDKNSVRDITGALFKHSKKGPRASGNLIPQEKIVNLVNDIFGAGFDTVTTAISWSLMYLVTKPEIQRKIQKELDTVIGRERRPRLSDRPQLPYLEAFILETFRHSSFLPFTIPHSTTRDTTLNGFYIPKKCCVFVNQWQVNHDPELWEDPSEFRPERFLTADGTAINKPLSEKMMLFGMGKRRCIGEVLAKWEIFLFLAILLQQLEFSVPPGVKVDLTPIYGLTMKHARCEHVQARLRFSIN

Cytochrome P450 3A4 = Cytochrome P450 3A4 (Homo sapiens, UniProt P08684);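 note: CYP3A4 tested as one member of a cytochrome P450 panel screen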
[1] = Shn3 3'UTR reporter inhibitors, dose response, cell-based, Clone20 osteoblasts, firefly luciferase, cherry-picked (AID 624132); type: functional;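 note: firefly luciferase luminescence from reporter carrying the Shn3 3'UTR in osteoblasts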
[2] = HepG2 cell cytotoxicity, dose response, cytotoxicity control for Shn3 inhibitor project, CellTiter-Glo, cherry-picked (AID 624134); type: functional, cell-based
[3] = control 3'UTR Renilla luciferase suppression, dose response, counter-screen for Shn3 inhibitor project, cell-based, Clone20-Shn3RL, cherry-picked (AID 624133); type: functional
P388/ADR = assay: cells; type: functional; conditions: Mus musculus
SN12K1 = assay: cells; type: functional; conditions: Homo sapiens
P388 = assay: cells; type: functional; conditions: Mus musculus
Paired box protein Pax-8 = Paired box protein Pax-8 (Homo sapiens, UniProt Q06710); assay: inhibitors of PAX8-driven TPO luciferase reporter, dose response, RMG-I cells, cherry-pick (AID 687027); type: functional, cell-based;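 note: luciferase reporter driven by Pax8 target thyroperoxidase promoter measured by SteadyGlo luminescence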
Chain of Paired box protein Pax-8 (Q06710 whole entry): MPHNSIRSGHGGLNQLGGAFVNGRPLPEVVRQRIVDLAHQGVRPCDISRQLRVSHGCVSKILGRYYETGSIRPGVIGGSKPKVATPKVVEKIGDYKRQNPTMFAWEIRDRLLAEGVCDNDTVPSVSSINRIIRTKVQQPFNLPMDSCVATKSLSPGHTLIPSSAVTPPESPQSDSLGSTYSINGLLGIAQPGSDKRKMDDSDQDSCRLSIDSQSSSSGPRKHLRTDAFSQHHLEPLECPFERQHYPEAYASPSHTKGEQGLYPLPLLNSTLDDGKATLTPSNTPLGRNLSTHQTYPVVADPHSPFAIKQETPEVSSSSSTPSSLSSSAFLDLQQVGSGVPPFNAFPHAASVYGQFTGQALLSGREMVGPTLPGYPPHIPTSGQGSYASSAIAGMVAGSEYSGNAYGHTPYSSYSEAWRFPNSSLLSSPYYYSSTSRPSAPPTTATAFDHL

Chain of Cytochrome P450 2D6 (P10635 whole entry): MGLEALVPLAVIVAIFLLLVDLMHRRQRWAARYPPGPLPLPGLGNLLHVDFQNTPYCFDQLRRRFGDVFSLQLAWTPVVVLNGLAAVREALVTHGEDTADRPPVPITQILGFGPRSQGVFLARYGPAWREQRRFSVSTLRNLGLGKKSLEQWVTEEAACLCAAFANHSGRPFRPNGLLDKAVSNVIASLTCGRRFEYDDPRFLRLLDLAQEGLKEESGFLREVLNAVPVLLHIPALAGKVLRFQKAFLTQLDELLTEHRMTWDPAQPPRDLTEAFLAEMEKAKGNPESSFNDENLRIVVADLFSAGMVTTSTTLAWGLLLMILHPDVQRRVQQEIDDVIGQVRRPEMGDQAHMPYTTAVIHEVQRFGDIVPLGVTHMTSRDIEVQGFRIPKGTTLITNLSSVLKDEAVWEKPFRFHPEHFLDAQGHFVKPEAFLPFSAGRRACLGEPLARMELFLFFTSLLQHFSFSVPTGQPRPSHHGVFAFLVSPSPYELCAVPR
Chain of Cytochrome P450 2C9 (P11712 whole entry): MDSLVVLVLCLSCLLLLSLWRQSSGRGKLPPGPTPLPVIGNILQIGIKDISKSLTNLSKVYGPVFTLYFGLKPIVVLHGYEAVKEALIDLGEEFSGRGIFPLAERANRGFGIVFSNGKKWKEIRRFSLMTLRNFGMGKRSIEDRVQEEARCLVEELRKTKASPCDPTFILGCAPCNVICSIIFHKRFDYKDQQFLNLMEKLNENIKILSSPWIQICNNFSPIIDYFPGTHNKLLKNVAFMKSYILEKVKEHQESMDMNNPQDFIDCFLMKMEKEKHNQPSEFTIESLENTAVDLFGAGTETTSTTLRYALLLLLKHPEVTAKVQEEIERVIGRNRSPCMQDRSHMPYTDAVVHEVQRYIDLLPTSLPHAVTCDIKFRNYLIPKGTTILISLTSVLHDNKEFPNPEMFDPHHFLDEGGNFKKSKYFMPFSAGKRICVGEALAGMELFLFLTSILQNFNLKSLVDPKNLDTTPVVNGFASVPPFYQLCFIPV
Chain of Cytochrome P450 2C19 (P33261 whole entry): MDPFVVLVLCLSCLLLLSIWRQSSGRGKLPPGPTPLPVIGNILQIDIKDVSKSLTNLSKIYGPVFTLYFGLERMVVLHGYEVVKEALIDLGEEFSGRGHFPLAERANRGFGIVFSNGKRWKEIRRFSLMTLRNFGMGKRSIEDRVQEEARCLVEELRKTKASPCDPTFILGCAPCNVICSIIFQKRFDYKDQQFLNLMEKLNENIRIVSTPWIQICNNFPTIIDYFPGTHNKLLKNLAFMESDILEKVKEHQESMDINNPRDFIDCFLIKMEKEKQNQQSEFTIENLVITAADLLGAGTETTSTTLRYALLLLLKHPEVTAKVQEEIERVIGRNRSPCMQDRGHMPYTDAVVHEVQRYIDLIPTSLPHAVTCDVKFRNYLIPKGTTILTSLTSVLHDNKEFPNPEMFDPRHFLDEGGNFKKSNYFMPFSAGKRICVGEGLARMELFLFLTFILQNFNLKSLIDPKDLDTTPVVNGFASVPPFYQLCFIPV
Chain of Cytochrome P450 3A4 (P08684 whole entry): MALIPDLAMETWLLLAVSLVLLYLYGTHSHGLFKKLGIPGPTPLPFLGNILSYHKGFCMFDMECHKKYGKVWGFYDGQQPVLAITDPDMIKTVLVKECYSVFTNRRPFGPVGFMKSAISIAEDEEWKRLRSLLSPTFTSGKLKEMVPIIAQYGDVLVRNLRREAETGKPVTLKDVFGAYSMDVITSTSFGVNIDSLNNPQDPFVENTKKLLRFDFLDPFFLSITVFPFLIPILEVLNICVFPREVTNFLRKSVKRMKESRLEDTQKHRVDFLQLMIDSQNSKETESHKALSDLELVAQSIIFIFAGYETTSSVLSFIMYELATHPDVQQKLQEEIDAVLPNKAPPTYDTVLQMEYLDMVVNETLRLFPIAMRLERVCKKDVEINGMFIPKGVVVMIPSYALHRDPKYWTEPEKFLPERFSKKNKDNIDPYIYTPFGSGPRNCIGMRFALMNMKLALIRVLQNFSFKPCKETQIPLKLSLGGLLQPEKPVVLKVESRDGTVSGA

- AC50 (Cytochrome P450 2C19): 25.1 µM (inconclusive)
- AC50 (Cytochrome P450 2C9): 15.8 µM (inconclusive)
SMILES: O=C(O)Cc1ccc2c(c1)N(S(=O)(=O)c1cccc(C(F)(F)F)c1)CC(C(=O)O)O2 (configuration not stated)

- AC50 (Cytochrome P450 2C19): 31.6 µM (inconclusive)
- AC50 (Cytochrome P450 2D6): 25.1 µM (inconclusive)
SMILES: CN(Cc1ccco1)c1cc(-c2cccc(NS(C)(=O)=O)c2)ncn1

- AC50 (Cytochrome P450 2C19): 7.94 µM (inconclusive)
- AC50 (Cytochrome P450 2D6): 39.8 µM (inconclusive)
SMILES: N#Cc1ccccc1-c1ccc2ncnc(NC3CC3)c2c1

SMILES: CC(=O)c1c(O)c(C)c(O)c(Cc2c(O)c3c(c(C(=O)/C=C\c4ccccc4)c2O)OC(C)(C)C=C3)c1O
- AC50 (Cytochrome P450 1A2): 31.6 µM (inconclusive)

- AC50 (Cytochrome P450 1A2): 28.2 µM (inconclusive)
- AC50 (Cytochrome P450 2C9): 1 µM (inconclusive)
SMILES: CNc1cnn(-c2ccccc2)c(=O)c1Cl

- AC50 (Cytochrome P450 2C19): 1.78 µM (inconclusive)
- AC50 (Cytochrome P450 2D6): 15.8 µM (inconclusive)
SMILES: OC(COc1ccc(OCC(O)CN2CCCCCC2)cc1)CN1CCCCCC1 (configuration not stated)

- AC50 (Cytochrome P450 2C9): 12.6 µM (inconclusive)
SMILES: CC1=C(C(=O)Nc2ccccc2)C(c2ccco2)NC(S)=N1 (configuration not stated)

- AC50 (Cytochrome P450 2D6): 7.94 µM (inconclusive)
- AC50 (Cytochrome P450 2C9): 10 µM (inconclusive)
SMILES: COc1cccc(C2NC(c3cccc(OC)c3O)C(C)C(=O)C2C)c1O (configuration not stated)

- AC50 (Cytochrome P450 1A2): 3.16 µM (inconclusive)
- AC50 (Cytochrome P450 2C9): 12.6 µM (inconclusive)
SMILES: CCN1CCc2nc(NC(=O)c3ccc4c(c3)OCCO4)sc2C1

- AC50 (Cytochrome P450 1A2): 15.8 µM (inconclusive)
- AC50 (Cytochrome P450 2C9): 3.16 µM (inconclusive)
SMILES: CC(C)CCN1C(=O)c2ccc(-c3nc4ccccc4c(=O)o3)cc2C1=O

- AC50 (Cytochrome P450 2D6): 25.1 µM (inconclusive)
SMILES: COc1ncc2nc(CCc3ccccc3)c(=O)n(CCC#N)c2n1

- AC50 (Cytochrome P450 2D6): 3.98 µM (inconclusive)
- AC50 (Cytochrome P450 2C9): 3.98 µM (inconclusive)
SMILES: Nc1nc(SCCc2ccccc2)c2nc[nH]c2n1

- AC50 (Cytochrome P450 1A2): 12.6 µM (inconclusive)
SMILES: c1ccc(-c2cccc(N3CC4(CCNCC4)C3)c2)cc1

- AC50 (Cytochrome P450 2C19): 25.1 µM (inconclusive)
- AC50 (Cytochrome P450 2C9): 15.8 µM (inconclusive)
SMILES: COc1cccc(OCc2nnc(SCC(=O)NCc3ccco3)n2C)c1

- AC50 (Cytochrome P450 2D6): 39.8 µM (inconclusive)
SMILES: Cc1noc(C)c1-c1ccc2ncnc(NCc3ccccc3)c2c1

- AC50 (Cytochrome P450 2C19): 1 µM (inconclusive)
- AC50 (Cytochrome P450 3A4): 14.1 µM (inconclusive)
- AC50 (Cytochrome P450 2C9): 7.94 µM (inconclusive)
SMILES: N#Cc1cc(-c2ccc(Cl)cc2)cnc1Sc1ccc(F)cc1

- AC50 (Cytochrome P450 1A2): 12.6 µM (inconclusive)
- AC50 (Cytochrome P450 3A4): 10 µM (inconclusive)
SMILES: COCC(=O)N1CCC[C@@]2(CCN(C(c3ccccc3)c3ccccc3)C2)C1

- AC50 (Cytochrome P450 2D6): 25.1 µM (inconclusive)
SMILES: O=S(=O)(c1ccccc1)N1CCC2(CCN(Cc3nccs3)CC2)CC1

- AC50 (Cytochrome P450 2C19): 31.6 µM (inconclusive)
- AC50 (Cytochrome P450 2C9): 3.55 µM (inconclusive)
SMILES: CCOC(=O)CN(c1ccccn1)S(=O)(=O)c1ccccc1

- AC50 (Cytochrome P450 1A2): 10 µM (inconclusive)
- AC50 (Cytochrome P450 3A4): 25.1 µM (inconclusive)
SMILES: CCOC(=O)CC(Nc1nc(N2CCOCC2)nc(N2CCOCC2)n1)c1ccccc1Cl (configuration not stated)

- AC50 (Cytochrome P450 2D6): 14.1 µM (inconclusive)
- AC50 (Cytochrome P450 3A4): 28.2 µM (inconclusive)
SMILES: Cc1ccc(C(c2ccc(C)o2)c2cccc([N+](=O)[O-])c2O)o1

- AC50 (Cytochrome P450 2C19): 25.1 µM (inconclusive)
- AC50 (Cytochrome P450 1A2): 15.8 µM (inconclusive)
SMILES: CCC(C)(C)n1nnnc1C(C(C)C)N(CCCO)Cc1cc2cc(C)ccc2nc1O (configuration not stated)

- AC50 (Cytochrome P450 2D6): 20 µM (inconclusive)
SMILES: O=C(c1cc(-c2ccc(Cl)cc2Cl)on1)N1CCN(C(=O)c2ccco2)CC1

- AC50 (Cytochrome P450 2C19): 3.98 µM (inconclusive)
- AC50 (Cytochrome P450 1A2): 15.8 µM (inconclusive)
- AC50 (Cytochrome P450 2C9): 20 µM (inconclusive)
SMILES: CCCC[C@H](CC)CNC(=N)NC(=N)NCCCCCCNC(=N)NC(=N)NC[C@@H](CC)CCCC

- AC50 (Cytochrome P450 2D6): 15.8 µM (inconclusive)
- AC50 (Cytochrome P450 2C9): 28.2 µM (inconclusive)
SMILES: COc1cc(NC(=O)COC(=O)c2nc3nc(C)cc(C)n3n2)cc(OC)c1

- AC50 (Cytochrome P450 2C9): 22.4 µM (inconclusive)
SMILES: CCOC(=O)CSC1=C(C#N)C(C)C2=C(O)CCCC2=N1 (configuration not stated)

SMILES: CCN1CCN(Cc2ccc(NC(=O)c3cc(NC(=O)c4cncc(-c5cccs5)c4)cc(OC)c3)cc2C(F)(F)F)CC1
- AC50 [1]: 9.68 µM (active)
- AC50 [2]: > 70 µM (inactive)
- AC50 [3]: 27.3 µM (active)

SMILES: COC1=C(C)C(=O)C2=C(C1=O)C(CO)N1C(C#N)C3CC4C(C1C2N1CCOC41)N3C (configuration not stated)
- GI50 (P388/ADR): 0.01 µM (active)
- GI50 (SN12K1): 0.294 µM (active)
- GI50 (P388): < 0.01 µM (active)
- AC50 (Paired box protein Pax-8): < 0.26 µM (active)

- AC50 (Cytochrome P450 1A2): 28.2 µM (inconclusive)
SMILES: CCOC(=O)CC1NC(=O)c2ccccc21 (configuration not stated)

SMILES: NC(Cc1ccc(Cl)cc1)c1csc(NC(=O)NCC2CCCCC2)n1 (configuration not stated)
- AC50 [1]: 6.58 µM (active)
- AC50 [2]: 11.1 µM (active)
- AC50 [3]: 9.27 µM (active)

SMILES: CC(=O)OC1CC2(O)C(CCC3(C)C(c4ccc(=O)oc4)CCC32O)C2(C)C1=CC(O)C1OC12 (configuration not stated)
- GI50 (P388/ADR): 79.1 µM (inactive)
- GI50 (SN12K1): 0.0424 µM (active)
- GI50 (P388): 46.1 µM (inactive)

SMILES: CN(C)CCNC(=O)c1cc(Cl)cc2ccc(-c3ccccc3)nc12
- GI50 (P388/ADR): 1.47 µM (inactive)
- GI50 (SN12K1): 1.77 µM (inactive)
- GI50 (P388): 0.476 µM (active)

SMILES: O=P1(c2ccccc2)Nc2ccccc2SSc2ccccc2N1
- GI50 (P388/ADR): 7.45 µM (inactive)
- GI50 (SN12K1): 15.3 µM (inactive)
- GI50 (P388): 0.839 µM (active)

SMILES: C=CCC(O[Si](C)(C)C(C)(C)C)c1cc(O[Si](C)(C)C(C)(C)C)ccc1OC (configuration not stated)
- GI50 (P388/ADR): > 100 µM (inactive)
- GI50 (SN12K1): > 100 µM (inactive)
- GI50 (P388): 22.2 µM (inactive)

SMILES: C=CCc1cccc(/C=N\N/C(N)=N/O)c1O
- GI50 (P388/ADR): 0.78 µM (active)
- GI50 (SN12K1): 2.01 µM (inactive)
- GI50 (P388): 1.19 µM (inactive)

SMILES: Oc1c(CNCCCN2CCCC2)cc(Cl)c2cccnc12
- GI50 (P388/ADR): 1.1 µM (active)
- GI50 (SN12K1): 0.942 µM (active)
- GI50 (P388): 1.69 µM (inactive)

SMILES: COc1cc(CCCOC2OC(COC3OCC(O)C(O)C3O)C(O)C(O)C2O)cc2cc(-c3ccc4c(c3)OCO4)oc12 (configuration not stated)
- GI50 (P388/ADR): > 175 µM (inactive)
- GI50 (SN12K1): > 175 µM (inactive)
- GI50 (P388): > 175 µM (inactive)

SMILES: Cc1ccc2cc3cccc(C(=O)NCCN(C)C)c3nc2c1
- GI50 (P388/ADR): 0.252 µM (active)
- GI50 (SN12K1): 0.426 µM (active)
- GI50 (P388): 0.257 µM (active)

SMILES: CNC(=O)OCc1nc(SC2CCCCO2)n(C)c1COC(=O)NC (configuration not stated)
- GI50 (P388/ADR): > 100 µM (inactive)
- GI50 (SN12K1): > 100 µM (inactive)
- GI50 (P388): > 100 µM (inactive)

SMILES: O=NN(CCCl)C(=O)NC1CCCCC1 [LOMUSTINE]
- GI50 (P388/ADR): 4.56 µM (inactive)
- GI50 (SN12K1): 32.6 µM (inactive)
- GI50 (P388): 4.23 µM (inactive)
